This is an account of results in PubChem BioAssay AID330 (DTP/NCI, 2004).

Several values for one entry are separate records, joined by “and”; a condition that tells them apart may be missing. Equal values may be shown once. Toxic doses and inconclusive results are not listed.

The test relates to P388 leukemia ip, CD2F1 mice, survival T/C. Briefly: NCI In Vivo Anticancer Drug Screen. Data for tumor model P388 Leukemia (intraperitoneal) in CD2F1 (CDF1) mice. The note with it: endpoint: median survival time, higher = longer survival. The method in brief:
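Mice carrying the transplanted tumor received test compound or vehicle. Survival was recorded in each group, and the value is the treated-group measurement divided by that of the vehicle-treated control group.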

[1] abbreviates: dose: 50.0 mg/kg/injection, schedule: Q01DX001 (ip), vehicle: saline with Tween-80.
The mark [2] stands for this setting: dose: 100.0 mg/kg/injection, schedule: Q01DX001 (ip), vehicle: saline with Tween-80.
Setting [3] is: dose: 200.0 mg/kg/injection, schedule: Q01DX001 (ip), vehicle: saline with Tween-80.
Where [4] appears, read: dose: 50.0 mg/kg/injection, schedule: Q01DX005 (ip), vehicle: saline with Tween-80.
Where [5] appears, read: dose: 100.0 mg/kg/injection, schedule: Q01DX005 (ip), vehicle: saline with Tween-80.
Where [6] appears, read: dose: 50.0 mg/kg/injection, schedule: Q01DX009 (ip), vehicle: saline with Tween-80.
[7] abbreviates: dose: 100.0 mg/kg/injection, schedule: Q01DX009 (ip), vehicle: saline with Tween-80.
Where [8] appears, read: dose: 60.0 mg/kg/injection, schedule: Q01DX005 (ip), vehicle: saline with Tween-80.
Setting [9] is: dose: 120.0 mg/kg/injection, schedule: Q01DX005 (ip), vehicle: saline with Tween-80.
Where [10] appears, read: dose: 240.0 mg/kg/injection, schedule: Q01DX005 (ip), vehicle: saline with Tween-80.
Where [11] appears, read: dose: 25.0 mg/kg/injection, schedule: Q01DX009 (ip), vehicle: Klucel (hydroxypropylcellulose) (HPC).
Where [12] appears, read: dose: 50.0 mg/kg/injection, schedule: Q01DX009 (ip), vehicle: Klucel (hydroxypropylcellulose) (HPC).
[13] abbreviates: dose: 200.0 mg/kg/injection, schedule: Q01DX009 (ip), vehicle: Klucel (hydroxypropylcellulose) (HPC).
The mark [14] stands for this setting: dose: 12.5 mg/kg/injection, schedule: Q01DX009 (ip), vehicle: saline with Tween-80.
Where [15] appears, read: dose: 25.0 mg/kg/injection, schedule: Q01DX009 (ip), vehicle: saline with Tween-80.

As to `OC1C=C2CCN3Cc4cc5c(cc4C(C1O)C23)OCO5` (stereo not drawn), the T/C (dose: 8.75 mg/kg/injection, schedule: Q01DX009 (ip), vehicle: Klucel (hydroxypropylcellulose) (HPC)) was 96 % of control; the T/C (dose: 17.5 mg/kg/injection, schedule: Q01DX009 (ip), vehicle: Klucel (hydroxypropylcellulose) (HPC)) is 96 % of control; the T/C (dose: 35.0 mg/kg/injection, schedule: Q01DX009 (ip), vehicle: Klucel (hydroxypropylcellulose) (HPC)) is 106 % of control; the T/C (dose: 70.0 mg/kg/injection, schedule: Q01DX009 (ip), vehicle: Klucel (hydroxypropylcellulose) (HPC)) was 109 % of control.
Turning to `CCCCC/C(=N\Nc1ccc([N+](=O)[O-])cc1[N+](=O)[O-])c1ccccc1`, the T/C by setting is: under setting [1], 105 % of control; under setting [2], 95 % of control; under setting [3], 95 % of control.
Turning to `CCN(CC)CCNC1CC2CCC1(C)C2(C)C` (stereo not drawn), the T/C was 98 % of control (dose: 25.0 mg/kg/injection, schedule: Q01DX005 (ip), vehicle: saline with Tween-80); 91 % of control under setting [4]; 89 % of control under setting [5].
For the compound `CC(C)OC(=S)SCC(=O)c1ccc(Br)cc1`, the T/C under setting [6] was 114 % of control; the T/C under setting [7] is 107 % of control; the T/C (dose: 200.0 mg/kg/injection, schedule: Q01DX009 (ip), vehicle: saline with Tween-80) was 106 % of control.
As to `O=C(O)Cc1cccc2c(=O)cc(-c3ccccc3)oc12`, the T/C reads like this: (dose: 24.12 mg/kg/injection, schedule: Q01DX005 (ip), vehicle: saline) 104 % of control; (dose: 30.0 mg/kg/injection, schedule: Q01DX009 (ip), vehicle: saline) 101 % of control and 103 % of control and 106 % of control; (dose: 40.2 mg/kg/injection, schedule: Q01DX005 (ip), vehicle: saline) 111 % of control; (dose: 44.0 mg/kg/injection, schedule: Q01DX009 (ip), vehicle: saline) 109 % of control and 117 % of control and 122 % of control; (dose: 45.0 mg/kg/injection, schedule: Q01DX009 (ip), vehicle: sodium bicarbonate) 116 % of control; (dose: 50.0 mg/kg/injection, schedule: Q01DX009 (ip), vehicle: saline) 106 % of control. In addition, the T/C is 103 % of control (dose: 60.0 mg/kg/injection, schedule: Q04DX002 (ip), vehicle: sodium bicarbonate); 112 % of control (dose: 67.0 mg/kg/injection, schedule: Q01DX001 (ip), vehicle: sodium bicarbonate); 118 % of control (dose: 90.0 mg/kg/injection, schedule: Q04DX002 (ip), vehicle: sodium bicarbonate); 107 % of control (dose: 100.0 mg/kg/injection, schedule: Q01DX001 (ip), vehicle: sodium bicarbonate); 153 % of control (dose: 111.67 mg/kg/injection, schedule: Q01DX005 (ip), vehicle: saline); 106 % of control (dose: 150.0 mg/kg/injection, schedule: Q01DX001 (ip), vehicle: sodium bicarbonate). In addition, the T/C runs as follows: (dose: 186.12 mg/kg/injection, schedule: Q01DX005 (ip), vehicle: saline) 172 % of control; (dose: 200.0 mg/kg/injection, schedule: Q01DX001 (ip), vehicle: sodium bicarbonate) 112 % of control; (dose: 223.0 mg/kg/injection, schedule: Q01DX001 (ip), vehicle: sodium bicarbonate) 103 % of control; (dose: 300.0 mg/kg/injection, schedule: Q01DX001 (ip), vehicle: sodium bicarbonate) 116 % of control; (dose: 333.0 mg/kg/injection, schedule: Q01DX001 (ip), vehicle: sodium bicarbonate) 112 % of control; (dose: 400.0 mg/kg/injection, schedule: Q01DX001 (ip), vehicle: sodium bicarbonate) 114 % of control. Further, the T/C (dose: 500.0 mg/kg/injection, schedule: Q01DX001 (ip), vehicle: sodium bicarbonate) was 116 % of control.
With `CCn1c2nc(=O)[nH]c(=O)c-2[n+]([O-])c2ccccc21`, the T/C (dose: 12.5 mg/kg/injection, schedule: Q01DX001 (ip), vehicle: saline with Tween-80) is 96 % of control; the T/C (dose: 25.0 mg/kg/injection, schedule: Q01DX001 (ip), vehicle: saline with Tween-80) was 96 % of control; the T/C under setting [1] is 96 % of control.
Regarding `O=c1[nH]c(N[N+](=O)[O-])nc(-c2ccccc2)c1Br`, the T/C by setting is: under setting [8], 98 % of control; under setting [9], 100 % of control; under setting [10], 99 % of control.
For `COC(=O)[C@]1(C)CCC[C@]2(C)c3ccc(C(C)C)cc3C(=O)C[C@@H]12`, in that order: 95 % of control, 94 % of control and 93 % of control.
As to `O=C(O)c1ccccc1.[Eu]`, the T/C was 88 % of control (dose: 12.5 mg/kg/injection, schedule: Q01DX009 (ip), vehicle: Klucel (hydroxypropylcellulose) (HPC)); 87 % of control under setting [11]; 89 % of control and 92 % of control under setting [12]; 90 % of control (dose: 100.0 mg/kg/injection, schedule: Q01DX009 (ip), vehicle: Klucel (hydroxypropylcellulose) (HPC)); 89 % of control under setting [13].
Regarding `Cc1c(C)c(C)c(S(=O)(=O)OCCCl)c(C)c1C`, the T/C by setting is: under setting [4], 98 % of control; under setting [5], 92 % of control; (dose: 200.0 mg/kg/injection, schedule: Q01DX005 (ip), vehicle: saline with Tween-80) 95 % of control.
In the case of `Fc1cccc(CSC(=S)Nc2ccc(Cl)c(C(F)(F)F)c2)c1`, the T/C is 98 % of control (dose: 50.0 mg/kg/injection, schedule: Q01DX009 (ip), vehicle: suspension in saline); 93 % of control (dose: 100.0 mg/kg/injection, schedule: Q01DX009 (ip), vehicle: suspension in saline); 98 % of control (dose: 200.0 mg/kg/injection, schedule: Q01DX009 (ip), vehicle: suspension in saline).
`CC1(C)N=C(N)N=C(N)N1c1cccc(OCCCOc2ccccc2)c1`: the T/C by setting is: (dose: 12.5 mg/kg/injection, schedule: Q01DX001 (ip), vehicle: Klucel (hydroxypropylcellulose) (HPC)) 101 % of control; (dose: 25.0 mg/kg/injection, schedule: Q01DX001 (ip), vehicle: Klucel (hydroxypropylcellulose) (HPC)) 100 % of control; (dose: 50.0 mg/kg/injection, schedule: Q01DX001 (ip), vehicle: Klucel (hydroxypropylcellulose) (HPC)) 102 % of control.
As for `Cc1ccc2c(=O)n(C)c(=O)n(C)c2n1`, the T/C reads like this: under setting [14], 98 % of control; under setting [15], 102 % of control; under setting [6], 103 % of control; under setting [7], 103 % of control.
Take `CC(=O)N1CN(C)N(C)C1`: the T/C reads like this: (dose: 60.0 mg/kg/injection, schedule: Q01DX005 (ip), vehicle: Klucel (hydroxypropylcellulose) (HPC)) 98 % of control; (dose: 120.0 mg/kg/injection, schedule: Q01DX005 (ip), vehicle: Klucel (hydroxypropylcellulose) (HPC)) 91 % of control; (dose: 240.0 mg/kg/injection, schedule: Q01DX005 (ip), vehicle: Klucel (hydroxypropylcellulose) (HPC)) 100 % of control.
As for `O=C(CCCCCCCCC(=O)Nc1ccccc1)Nc1ccccc1`, the T/C is 103 % of control under setting [1]; 103 % of control under setting [2]; 100 % of control under setting [3]; 108 % of control (dose: 400.0 mg/kg/injection, schedule: Q01DX001 (ip), vehicle: saline with Tween-80).
Take `CCN(CC)CCCC(C)NC(=O)Cc1cc(O)c2c(c1O)C(=O)c1ccccc1C2=O` (stereo not drawn): the T/C by setting is: (dose: 2.5 mg/kg/injection, schedule: Q01DX009 (ip), vehicle: water) 108 % of control and 112 % of control; (dose: 5.0 mg/kg/injection, schedule: Q01DX009 (ip), vehicle: water) 102 % of control and 110 % of control; (dose: 10.0 mg/kg/injection, schedule: Q01DX009 (ip), vehicle: water) 99 % of control and 103 % of control and 97 % of control; (dose: 20.0 mg/kg/injection, schedule: Q01DX009 (ip), vehicle: water) 99 % of control and 110 % of control and 93 % of control; (dose: 40.0 mg/kg/injection, schedule: Q01DX009 (ip), vehicle: water) 102 % of control and 113 % of control; (dose: 80.0 mg/kg/injection, schedule: Q01DX009 (ip), vehicle: water) 108 % of control.
As to `COc1cccc(N=Nc2c(N)nc(N)nc2N)c1`, the T/C is, setting by setting: under setting [14], 100 % of control; under setting [15], 108 % of control; under setting [6], 117 % of control.
For `CN1CCCc2cc(/C=C\c3ccnc4ccccc34)ccc21`, the T/C was 93 % of control under setting [11], 104 % of control under setting [12] and 118 % of control under setting [13].
